Experimental data as given in patent publication US5625083A, “Dinitroglycerol esters of unsaturated fatty acids and prostaglandins” (priority 1995, dated 1997).
Like-named read-outs stand apart in the source and are kept apart here.

Legend:
human platelets [1] = test: ADP-induced aggregation of human platelets; assay type: cell-based; conditions: for inhibition of ADP induced human platelet aggregation: moderate antiaggregating activity
Experimental: 1,3Dinitroglycerol ester of prostaglandin D2 inhibited aggregation of human platelets induced by ADP ([…]) in dose 0.1 mg/ml of plasma on 50%.

RAT UTERUS = test: Rat uterus contraction; assay type: cell-based; conditions: for EC50: Rattus norvegicus
isolated rat aorta [2] = test: Isolated rat aorta relaxation / contraction; assay type: cell-based; conditions: for EC50: Rattus norvegicus; for effect on isolated rat aorta: result in words
GUINEA PIG TRACHEA = test: Isolated guinea pig trachea relaxation / contraction; assay type: cell-based; conditions: for EC50: Cavia porcellus
RAT STOMACH = test: Rat stomach contraction; assay type: cell-based; conditions: for EC50: Rattus norvegicus
RAT COLON = test: Rat colon contraction; assay type: cell-based; conditions: for EC50: Rattus norvegicus
isolated rat aorta [3] = test: Stability of ethanolic solution of NITROPROSTON (relaxation of isolated rat aorta contracted with adrenaline after storage); assay type: cell-based; conditions: read-out: Relaxation of isolated rat aorta contracted with adrenaline, ED5O
From the text: Stability of ethanolic solution of NITROPROSTON.
Relaxation of isolated rat aorta
months contracted with adrenaline, ED5O, M*10^-6

rat and rabbit tissues = test: Hypertensive activity in experiments with rat and rabbit tissues; conditions: relative to parent PGE2
heart rate = test: Heart rate and tachyphylaxis in experimental animals; assay type: in vivo
[4] = system: volunteers and patients with bronchus obstruction; test: Bronchodilation in volunteers and patients with bronchus obstruction; assay type: in vivo, human; conditions: given as a spray (5-7×10^-3 mg per dose)
From the text: This raises the possibility of using NITROPROSTON to treat bronchospasms.

mice [5] = test: Mice survival under conditions of hypobaric hypoxia; assay type: in vivo; conditions: Hypobary (9000 m); 1 mg/kg; control 18.5
From the text: (§1) INFLUENCE OF NITROPROSTON ON MICE SURVIVAL
UNDER CONDITIONS OF HYPOBARIC HYPOXIA AND

mice [6] = test: Mice survival under toxic concentration of CO; assay type: in vivo
From the text: (§2) NITROPROSTON protected laboratory animals from a variety of noxious factors. It increased the survival of mice in an atmosphere with elevated CO or NO2 concentration: survival in the experimental group was 1.5-4 times higher than in the control group.
as §1
(§3) TOXIC CONCENTRATION OF CO OR NO2

mice [7] = test: Mice survival under toxic concentration of NO2; assay type: in vivo; conditions: NO2 (700 mg/m^3); 1 mg/kg; control 17
From the text: as §2, §1, §3

mice [8] = test: Toxicity in mice; assay type: in vivo
[9] = system: rats with experimental hypercholesterolaemia; test: Lipid spectrum of serum of rats with experimental hypercholesterolaemia; assay type: in vivo, rat; conditions: 15 μg/kg intraperitoneally, 6 times per week, one month
Experimental: Lipids and lipid fractions in sera of rats with experimental hypercholesterolaemea were determined after one month of animal development with indicated drugs in a dose 15 μg/kg body weight intraperitoneally. 6 times per week. Rats not developed by drugs served as a control group.

[10] = system: rats with experimental hypercholesterolaemia; test: Peroxidation of serum or tissue lipids (MDA) of rats with experimental hypercholesterolaemia; assay type: in vivo, rat; conditions: 15 μg/kg intraperitoneally, 6 times per week, one month
Experimental: MDA contents as a parameter of lipid peroxidation were estimated after one month of animal development with indicated drugs in a dose 15 μg/kg body weight intraperitoneally, 6 times per week. Rats not developed by drugs served as a control.

human platelets [11] = conditions: parent compound, no own test described; cited from earlier work
[12] = contraction, read-out: stimulating rat uterine contractions, EC50
[13] = read-out: RAT UTERUS, contraction, EC50
[14] = read-out: ISOLATED RAT AORTA relaxation, EC50
[15] = read-out: GUINEA PIG TRACHEA relaxation, EC50
[16] = compared with prostaglandin F2α
[17] = relaxation, read-out: vasodilating effect on the isolated rat aorta, EC50

CC/C=C\C/C=C\C/C=C\CCCCCCCC(=O)OC(CO[N+](=O)[O-])CO[N+](=O)[O-] [1,3-dinitroglycerol ester of 9,12,15-octadecatrienoic acid]
inhibition of ADP induced human platelet aggregation (human platelets [1]): 30-50%

CCCCC/C=C\C/C=C\C/C=C\C/C=C\CCCC(=O)OC(CO[N+](=O)[O-])CO[N+](=O)[O-] [1,3-dinitroglycerol ester of arachidonic acid]
inhibition of aggregation of human platelets induced by ADP (human platelets [1]; ADP (1×10^-5), dose 0.1 mg/ml of plasma): almost completely inhibited

CC/C=C\C/C=C\C/C=C\C/C=C\C/C=C\C/C=C\CCC(=O)OC(CO[N+](=O)[O-])CO[N+](=O)[O-] [1,3-dinitroglycerol ester of docosahexaenoic acid]
inhibition of ADP induced human platelet aggregation (human platelets [1]): 30-50%

CCCCC[C@H](O)/C=C/[C@H]1C(=O)C[C@H](O)[C@@H]1C/C=C\CCCC(=O)OC(CO[N+](=O)[O-])CO[N+](=O)[O-] [1,3-dinitroglycerol ester of prostaglandin D2]
inhibition at 100 µg/mL (human platelets [1]; Homo sapiens, Platelet, ADP (1×10M), dose 0.1 mg/ml of plasma): 50%

CCCCC[C@H](O)/C=C/[C@@H]1[C@@H](C/C=C\CCCC(=O)OC(CO[N+](=O)[O-])CO[N+](=O)[O-])[C@@H](O)C[C@H]1O [NITROPROST-F, 1,3-dinitroglycerol ester of prostaglandin F2α]
EC50 (RAT UTERUS; [12]): 9 nM
EC50 (RAT UTERUS; [13]): 9 ± 1.7 nM
effectiveness in stimulating rat uterine contractions, times more than prostaglandin F2α (RAT UTERUS; relative to prostaglandin F2α): more than 10 times
EC50 (isolated rat aorta [2]; [14]): 540 ± 190 nM
EC50 (GUINEA PIG TRACHEA; [15]): 10000 ± 1500 nM
EC50 (RAT STOMACH): 130 ± 10 nM
activity in rat stomach contraction (RAT STOMACH; [16]): lower activity
EC50 (RAT COLON): 175 ± 70 nM
effectiveness on rat colon (RAT COLON; [16]): as effective as prostaglandin F2α

CCCCC[C@H](O)/C=C/[C@H]1[C@H](O)CC(=O)[C@@H]1C/C=C\CCCC(=O)OC(CO[N+](=O)[O-])CO[N+](=O)[O-] [NITROPROSTON, 1,3-dinitroglycerol ester of prostaglandin E2]
EC50 (isolated rat aorta [3]; time of storage 1 month): 1540 ± 210 nM
EC50 (isolated rat aorta [3]; time of storage 12 months): 1770 ± 148 nM
EC50 (RAT UTERUS; [13]): 400 ± 100 nM
EC50 (isolated rat aorta [2]; [14]): 680 ± 120 nM
EC50 (isolated rat aorta [2]; [17]): 680 nM
EC50 (GUINEA PIG TRACHEA; [15]): 7 nM
EC50 (GUINEA PIG TRACHEA; relaxation, read-out: bronchodilating activity, EC50 in isolated guinea pig trachea): 7.18 nM
EC50 (RAT STOMACH): 60 ± 10 nM
hypertensive activity, times higher than that of the parent PGE2 (rat and rabbit tissues): 5 times
effect on heart rate (heart rate): did not affect the heart rate
tachyphylaxis (heart rate): no tachyphylaxis was observed
bronchodilation in volunteers and patients with bronchus obstruction [4]: potent, effective bronchodilator
Survival, % (mice [5]): 82%
Survival, % (mice [6]; CO (11 g/m^3), 1 mg/kg, control 41): 66%
survival in the experimental group, times higher than in the control group (mice [6]; mice, atmosphere with elevated CO or NO2 concentration): 1.5-4 times
Survival, % (mice [7]): 65%
LD50 (mice [8]): > 100 mg
HDL cholesterol (HDLC), changes of the contents (%, relative to control) [9]: 123%
HDLC/TSC, changes (%, relative to control) [9]: 128%
LDL cholesterol, changes of the contents (%, relative to control) [9]: 57%
Total lipids, changes of the contents (%, relative to control) [9]: 67%
Total serum cholesterol (TSC), changes of the contents (%, relative to control) [9]: 95%
Triglicerides, changes of the contents (%, relative to control) [9]: 95%
MDA level (%, relative to control), Aorta [10]: 44%
MDA level (%, relative to control), Liver [10]: 77%
MDA level (%, relative to control), Serum [10]: 85%

CCCCC[C@H](O)/C=C/[C@H]1[C@H](O)CC(=NO)[C@@H]1CCCCCCC(=O)OC(CO[N+](=O)[O-])CO[N+](=O)[O-] [NITROPROX, 1,3-dinitroglycerol ester of 9-oxyiminoprostaglandin E1]
EC50 (isolated rat aorta [2]; [17]): 640 nM
IC50 (human platelets [1]; Homo sapiens, Platelet, read-out: antiaggregating properties, IC50, ADP-induced aggregation of human platelets): 1100 nM
HDL cholesterol (HDLC), changes of the contents (%, relative to control) [9]: 114%
HDLC/TSC, changes (%, relative to control) [9]: 138%
LDL cholesterol, changes of the contents (%, relative to control) [9]: 76%
Total lipids, changes of the contents (%, relative to control) [9]: 92%
Total serum cholesterol (TSC), changes of the contents (%, relative to control) [9]: 96%
Triglicerides, changes of the contents (%, relative to control) [9]: 79%
MDA level (%, relative to control), Aorta [10]: 32%
MDA level (%, relative to control), Liver [10]: 104%
MDA level (%, relative to control), Serum [10]: 101%

CCCCC[C@H](O)/C=C/[C@H]1[C@H](O)CC(=O)[C@@H]1C/C=C\CCCC(=O)O [PGE2, prostaglandin E2, reference compound]
EC50 (RAT UTERUS; [13]): 80 ± 16 nM
EC50 (isolated rat aorta [2]; read-out: ISOLATED RAT AORTA contraction, EC50): 84000 ± 1000 nM
effect on isolated rat aorta (isolated rat aorta [2]): induced muscle contraction
EC50 (GUINEA PIG TRACHEA; [15]): 140 ± 80 nM
EC50 (RAT STOMACH): 40 ± 15 nM

CCCCC[C@H](O)/C=C/[C@@H]1[C@@H](C/C=C\CCCC(=O)O)[C@@H](O)C[C@H]1O [PGF2α, prostaglandin F2α, reference compound]
EC50 (RAT UTERUS; [12]): 110 nM
EC50 (RAT UTERUS; [13]): 110 ± 40 nM
effect on isolated rat aorta (isolated rat aorta [2]): contraction
effect on isolated guinea pig trachea (GUINEA PIG TRACHEA; result in words): contraction
EC50 (RAT STOMACH): 50 ± 15 nM
EC50 (RAT COLON): 130 ± 71 nM

CCCCC[C@H](O)/C=C/[C@H]1[C@H](O)CC(=O)[C@@H]1CCCCCCC(=O)OC(CO[N+](=O)[O-])CO[N+](=O)[O-] [PROSTANIT, 1,3-dinitroglycerol ester of prostaglandin E1]
EC50 (isolated rat aorta [2]; relaxation, read-out: relaxing effect on the isolated rat aorta, EC50): 2100 nM
IC50 (human platelets [1]; Homo sapiens, Platelet, read-out: inhibition of ADP-induced aggregation of human platelets, IC50): 190 nM
HDL cholesterol (HDLC), changes of the contents (%, relative to control) [9]: 76%
HDLC/TSC, changes (%, relative to control) [9]: 122%
LDL cholesterol, changes of the contents (%, relative to control) [9]: 70%
Total lipids, changes of the contents (%, relative to control) [9]: 72%
Total serum cholesterol (TSC), changes of the contents (%, relative to control) [9]: 78%
Triglicerides, changes of the contents (%, relative to control) [9]: 72%

CCCCC/C=C\C/C=C\C/C=C\C/C=C\CCCC(=O)O [arachidonic acid]
effect on platelet aggregation (parent acid) (human platelets [11]): powerful inducer of platelet aggregation

CCC=CCC=CCC=CCC=CC=CC(O)CCCC(=O)OCC(CO[N+](=O)[O-])O[N+](=O)[O-] (centres unmarked) [dinitroglycerol ester of 5-hydroxyeicosapentaenoic acid]
inhibition of ADP induced human platelet aggregation (human platelets [1]): 30-50%
